Laboratory results published in ChEMBL document CHEMBL5131453, “Discovery and structure-based design of a new series of potent and selective PPARδ agonists utilizing a virtual screening method” (Bioorg Med Chem Lett, 2022).
Values after ≈ are worked out from the molar mass of the structure shown.

Assays:
[1] = biological target: T1, Peroxisome proliferator-activated receptor delta (Homo sapiens) (UniProt Q03181); assay: Transactivation of Gal4-fused human PPARdelta expressed in CHO cells co expressing pG5-Luc reporter at 10 uM; format: cell-based; conditions: filed as agonist
T1 sequence (whole entry): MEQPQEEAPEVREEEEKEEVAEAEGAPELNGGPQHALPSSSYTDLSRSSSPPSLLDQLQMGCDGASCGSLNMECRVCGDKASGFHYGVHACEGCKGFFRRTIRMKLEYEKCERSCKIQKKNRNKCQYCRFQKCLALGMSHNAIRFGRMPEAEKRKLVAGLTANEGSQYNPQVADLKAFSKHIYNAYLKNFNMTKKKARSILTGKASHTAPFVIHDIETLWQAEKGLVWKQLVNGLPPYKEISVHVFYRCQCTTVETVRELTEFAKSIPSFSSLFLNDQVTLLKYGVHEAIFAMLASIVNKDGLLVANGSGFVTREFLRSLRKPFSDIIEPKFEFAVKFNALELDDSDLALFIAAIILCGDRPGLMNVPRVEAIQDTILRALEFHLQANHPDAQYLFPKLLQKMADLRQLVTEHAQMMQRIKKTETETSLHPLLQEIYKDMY

[2] = biological target: T2, Peroxisome proliferator-activated receptor alpha (Homo sapiens) (UniProt Q07869); assay: Transactivation of Gal4-fused human PPARalpha expressed in CHO cells co expressing pG5-Luc reporter at 1 uM; format: cell-based; conditions: filed as agonist
T2 sequence (whole entry): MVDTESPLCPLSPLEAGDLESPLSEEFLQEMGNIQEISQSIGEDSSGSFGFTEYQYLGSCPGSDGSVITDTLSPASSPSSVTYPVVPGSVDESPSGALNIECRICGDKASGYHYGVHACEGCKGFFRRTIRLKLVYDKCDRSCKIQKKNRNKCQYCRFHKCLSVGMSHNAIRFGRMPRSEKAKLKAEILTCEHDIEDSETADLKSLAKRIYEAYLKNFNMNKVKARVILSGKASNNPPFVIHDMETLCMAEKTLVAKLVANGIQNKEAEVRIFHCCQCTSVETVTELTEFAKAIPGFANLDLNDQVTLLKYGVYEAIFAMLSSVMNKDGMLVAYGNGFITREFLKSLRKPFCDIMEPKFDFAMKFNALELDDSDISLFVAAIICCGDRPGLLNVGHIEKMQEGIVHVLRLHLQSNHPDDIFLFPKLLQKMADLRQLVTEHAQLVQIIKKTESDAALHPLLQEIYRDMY

[3] = biological target: T2, Peroxisome proliferator-activated receptor alpha (Homo sapiens); assay: Transactivation of Gal4-fused human PPARalpha expressed in CHO cells co expressing pG5-Luc reporter at 10 uM; format: cell-based; conditions: filed as agonist
[4] = biological target: T3, Peroxisome proliferator-activated receptor gamma (Homo sapiens) (UniProt P37231); assay: Transactivation of Gal4-fused human PPARgamma expressed in CHO cells co expressing pG5-Luc reporter at 10 uM; format: cell-based; conditions: filed as agonist
T3 sequence (whole entry): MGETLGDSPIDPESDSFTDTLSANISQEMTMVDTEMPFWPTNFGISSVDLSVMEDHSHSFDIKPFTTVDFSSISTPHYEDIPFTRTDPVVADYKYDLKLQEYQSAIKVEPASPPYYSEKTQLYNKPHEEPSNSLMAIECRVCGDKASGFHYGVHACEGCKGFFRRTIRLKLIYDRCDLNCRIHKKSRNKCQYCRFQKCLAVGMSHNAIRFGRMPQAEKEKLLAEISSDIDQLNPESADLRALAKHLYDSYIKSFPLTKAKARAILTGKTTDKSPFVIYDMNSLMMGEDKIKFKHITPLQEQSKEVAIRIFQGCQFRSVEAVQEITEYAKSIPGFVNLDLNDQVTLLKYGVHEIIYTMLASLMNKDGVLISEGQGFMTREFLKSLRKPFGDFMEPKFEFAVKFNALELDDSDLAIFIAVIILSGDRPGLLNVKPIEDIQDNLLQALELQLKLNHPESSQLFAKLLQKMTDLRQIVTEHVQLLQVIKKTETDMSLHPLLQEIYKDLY

[5] = biological target: T4, Peroxisome proliferator-activated receptor delta (Mus musculus) (UniProt P35396); assay: Transactivation of Gal4-fused mouse PPARdelta expressed in CHO cells co expressing pG5-Luc reporter at 1 uM; format: cell-based; conditions: filed as agonist
T4 sequence (whole entry): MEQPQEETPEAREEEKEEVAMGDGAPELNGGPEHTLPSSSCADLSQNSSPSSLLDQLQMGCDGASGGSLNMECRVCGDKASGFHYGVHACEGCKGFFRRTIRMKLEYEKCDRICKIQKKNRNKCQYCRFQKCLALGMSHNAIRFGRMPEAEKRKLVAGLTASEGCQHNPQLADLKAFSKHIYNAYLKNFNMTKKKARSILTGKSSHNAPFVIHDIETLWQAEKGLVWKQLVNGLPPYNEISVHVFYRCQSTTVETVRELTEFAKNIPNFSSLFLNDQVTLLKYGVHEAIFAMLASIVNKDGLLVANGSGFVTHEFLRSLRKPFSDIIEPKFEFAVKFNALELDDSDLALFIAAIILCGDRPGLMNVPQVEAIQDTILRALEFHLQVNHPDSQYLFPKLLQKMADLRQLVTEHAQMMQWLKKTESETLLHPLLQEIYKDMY

[6] = biological target: T5, Peroxisome proliferator-activated receptor delta (Homo sapiens, UniProt Q03181); assay: Transactivation of Gal4-fused human PPARdelta expressed in CHO cells co expressing pG5-Luc reporter; format: cell-based
T5 sequence (Q03181 whole entry): T1 sequence (whole entry)

[7] = biological target: T6, Peroxisome proliferator-activated receptor alpha (Homo sapiens, UniProt Q07869); assay: Transactivation of Gal4-fused human PPARalpha expressed in CHO cells co expressing pG5-Luc reporter; format: cell-based
T6 sequence (Q07869 whole entry): T2 sequence (whole entry)

[8] = biological target: T7, Peroxisome proliferator-activated receptor delta (Mus musculus, UniProt P35396); assay: Transactivation of Gal4-fused mouse PPARdelta expressed in CHO cells co expressing pG5-Luc reporter; format: cell-based
T7 sequence (P35396 whole entry): T4 sequence (whole entry)

[9] = biological target: T8, Peroxisome proliferator-activated receptor gamma (Homo sapiens, UniProt P37231); format: cell-based, CHO
T8 sequence (P37231 whole entry): T3 sequence (whole entry)

[10] = test system: Mus musculus; assay: Anti-obesity activity in […] mouse assessed as TG level at 30 mg/kg, po for 8 days (reference value: 162.8 +/- 21.4 mg/dL); format: functional; conditions: time 8 day
[11] = test system: Mus musculus; assay: Anti-diabetic activity in […] mouse assessed as glucose level at 30 mg/kg, po for 8 days (reference value: 737 +/- 52 mg/dL); format: functional; conditions: time 8 day
[12] = test system: Mus musculus; assay: Anti-obesity activity in […] mouse assessed as HDL cholesterol level at 30 mg/kg, po for 8 days (reference value: 103.5 +/- 3.2 %); format: functional; conditions: time 8 day
[13] = biological target: T9, CYP1A2 (Homo sapiens, UniProt P05177); assay: Inhibition of CYP1A2 (unknown origin) assessed as residual activity at 20 uM by enzyme assay relative to control; format: ADME; conditions: read-out: Activity
T9 sequence (P05177 whole entry): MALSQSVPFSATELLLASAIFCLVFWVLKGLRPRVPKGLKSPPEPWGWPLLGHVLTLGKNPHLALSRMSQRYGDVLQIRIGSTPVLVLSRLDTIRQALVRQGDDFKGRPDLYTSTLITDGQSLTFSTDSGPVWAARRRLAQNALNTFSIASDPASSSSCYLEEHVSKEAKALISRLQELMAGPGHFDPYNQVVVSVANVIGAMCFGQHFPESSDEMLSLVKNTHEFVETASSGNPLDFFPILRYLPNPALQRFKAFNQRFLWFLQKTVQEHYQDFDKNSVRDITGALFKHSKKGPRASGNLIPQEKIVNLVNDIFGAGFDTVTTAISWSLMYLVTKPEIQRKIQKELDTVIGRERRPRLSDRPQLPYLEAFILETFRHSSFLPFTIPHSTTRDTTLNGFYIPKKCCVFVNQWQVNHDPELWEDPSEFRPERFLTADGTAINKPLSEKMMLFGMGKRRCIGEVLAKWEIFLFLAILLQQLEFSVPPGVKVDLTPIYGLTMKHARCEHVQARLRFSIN

[14] = Half life in rat dosed as mixture; format: ADME, organism-based; conditions: in vivo
[15] = species: Homo sapiens; assay: Selectivity index, ratio of EC50 for human PPARalpha to EC50 for human PPARdelta
[16] = biological target: PPAR delta/gamma (Homo sapiens) (UniProt P37231+Q03181); assay: Selectivity index, ratio of EC50 for human PPAgamma to EC50 for human PPARdelta; format: protein assay
[17] = biological target: CYP2D6 (Homo sapiens, UniProt P10635); assay: Inhibition of CYP2D6 (unknown origin) assessed as residual activity at 20 uM by enzyme assay relative to control; format: ADME; conditions: read-out: Activity
[18] = Total clearance in rat dosed as mixture; format: ADME, organism-based; conditions: in vivo
[19] = Metabolic stability in human liver microsomes assessed as parent compound remaining after 0.5 hrs relative to control; format: ADME, Microsome; conditions: read-out: Stability
[20] = biological target: CYP2C9 (Homo sapiens, UniProt P11712); assay: Inhibition of CYP2C9 (unknown origin) assessed as residual activity at 20 uM by enzyme assay relative to control; format: ADME; conditions: read-out: Activity
[21] = Metabolic stability in rat liver microsomes assessed as parent compound remaining after 0.5 hrs relative to control; format: ADME, Microsome; conditions: read-out: Stability
[22] = biological target: CYP3A4 (Homo sapiens, UniProt P08684); assay: Inhibition of CYP3A4 (unknown origin) assessed as residual activity at 20 uM by enzyme assay relative to control; format: ADME; conditions: read-out: Activity
[23] = Kinetic solubility of compound at pH 6.8 by HPLC analysis; format: physicochemical; conditions: buffer, read-out: Kinetic_solubility

CYP3A4, sequence (P08684 whole entry): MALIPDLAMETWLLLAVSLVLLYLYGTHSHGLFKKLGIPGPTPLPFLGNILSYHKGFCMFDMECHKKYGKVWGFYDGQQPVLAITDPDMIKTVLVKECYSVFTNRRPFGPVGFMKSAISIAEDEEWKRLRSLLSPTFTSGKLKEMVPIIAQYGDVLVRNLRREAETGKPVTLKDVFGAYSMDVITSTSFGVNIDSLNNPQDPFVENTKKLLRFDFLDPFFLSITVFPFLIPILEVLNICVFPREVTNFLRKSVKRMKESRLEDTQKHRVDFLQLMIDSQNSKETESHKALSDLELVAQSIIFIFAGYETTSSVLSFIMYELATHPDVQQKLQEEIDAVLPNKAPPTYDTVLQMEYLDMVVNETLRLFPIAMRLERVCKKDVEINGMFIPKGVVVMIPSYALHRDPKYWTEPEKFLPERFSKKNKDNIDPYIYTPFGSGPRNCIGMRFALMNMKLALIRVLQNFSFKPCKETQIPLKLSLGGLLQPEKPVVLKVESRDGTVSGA
CYP2D6, sequence (P10635 whole entry): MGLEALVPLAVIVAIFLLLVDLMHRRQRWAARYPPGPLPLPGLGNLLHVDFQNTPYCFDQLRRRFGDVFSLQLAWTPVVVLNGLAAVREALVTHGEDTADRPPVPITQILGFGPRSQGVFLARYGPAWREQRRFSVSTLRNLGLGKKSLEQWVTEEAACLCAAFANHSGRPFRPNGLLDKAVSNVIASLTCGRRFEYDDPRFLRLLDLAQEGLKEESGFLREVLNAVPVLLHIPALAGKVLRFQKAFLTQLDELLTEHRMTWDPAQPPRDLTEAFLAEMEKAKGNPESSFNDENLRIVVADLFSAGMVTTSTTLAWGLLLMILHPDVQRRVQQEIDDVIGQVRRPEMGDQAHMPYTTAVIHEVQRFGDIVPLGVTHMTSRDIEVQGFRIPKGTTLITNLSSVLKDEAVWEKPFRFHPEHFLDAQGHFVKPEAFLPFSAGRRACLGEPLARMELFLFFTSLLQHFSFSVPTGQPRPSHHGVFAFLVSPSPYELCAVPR
CYP2C9, sequence (P11712 whole entry): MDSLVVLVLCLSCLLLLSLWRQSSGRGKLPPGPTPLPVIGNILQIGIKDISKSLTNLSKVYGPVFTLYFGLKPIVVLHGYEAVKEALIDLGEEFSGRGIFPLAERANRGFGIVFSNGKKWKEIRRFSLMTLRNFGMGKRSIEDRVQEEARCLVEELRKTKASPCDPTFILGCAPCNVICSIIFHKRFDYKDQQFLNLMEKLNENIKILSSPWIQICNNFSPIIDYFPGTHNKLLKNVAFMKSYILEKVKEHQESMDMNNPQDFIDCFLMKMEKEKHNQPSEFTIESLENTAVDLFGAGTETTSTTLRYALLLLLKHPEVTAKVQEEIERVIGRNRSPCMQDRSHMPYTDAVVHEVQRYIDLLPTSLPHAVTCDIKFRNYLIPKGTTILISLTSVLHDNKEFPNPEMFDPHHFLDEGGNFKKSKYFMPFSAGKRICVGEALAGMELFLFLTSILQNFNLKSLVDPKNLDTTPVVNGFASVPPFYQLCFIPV

| Structure (SMILES) | fold change (FC) [2] | fold change (FC) [5] | EC50 [6] [nM] | EC50 [7] [nM] | EC50 [8] [nM] | EC50 [9] [nM] | further results |
| --- | --- | --- | --- | --- | --- | --- | --- |
| O=C(O)CCC(=O)OCCC1CCN(c2nc3ccc(Cl)cc3s2)CC1 | 2.4 | 2 | – | – | – | – | fold change (FC) [1]: 11; fold change (FC) [3]: 8.6; fold change (FC) [4]: 1.5 |
| Cc1cc(CC(=O)O)cc(OCCC2CCN(c3nc4ccc(Cl)cc4s3)CC2)c1 | – | – | 92.9 | 955 | 151 | 1070 | – |
| CCc1ccc(CC(=O)O)cc1OCCC1CCN(c2nc3ccc(Cl)cc3s2)CC1 | – | – | 120 | 3600 | 330 | 680 | – |
| Cc1ccc(OCCC2CCN(c3nc4ccc(Cl)cc4s3)CC2)cc1CC(=O)O | – | – | 110 | – | 830 | 980 | – |
| O=C(O)CCc1cccc(OCCC2CCN(c3nc4ccc(Cl)cc4s3)CC2)c1 | 1.5 | 2.2 | – | – | – | – | – |
| Cc1cc(SCc2sc(-c3ccc(C(F)(F)F)cc3)nc2C)ccc1OCC(=O)O [GW501516] | 3.1 | 30.4 | – | – | – | – | Activity [10]: 82.4 mg/dL; Activity [11]: 493 mg/dL; Activity [12]: 132.9% |
| O=C(O)Cc1cccc(OCC2CCN(c3nc4ccc(Cl)cc4s3)CC2)c1 | 2.5 | 7 | – | – | – | – | – |
| O=C(O)CCC(=O)OCCN1CCN(c2nc3ccc(Cl)cc3s2)CC1 | 1.5 | – | – | – | – | – | fold change (FC) [1]: 2.8; fold change (FC) [3]: 3; fold change (FC) [4]: 1.5 |
| CN(CCOc1ccc(CC2SC(=O)NC2=O)cc1)c1ccccn1 (stereo not drawn) | 1.2 | – | – | – | – | – | – |
| O=C(O)Cc1cccc(OCCC2CCN(c3nc4ccc(Cl)cc4s3)CC2)c1 | – | – | 263 | 2220 | 1060 | – | – |
| Cc1ccc(CC(=O)O)cc1OCCC1CCN(c2nc3ccc(Cl)cc3s2)CC1 | – | – | 16.4 | 637 | 71.2 | 542 | activity at 20 µM [13]: 92%; Activity [10]: 63.9 mg/dL; half-life [14]: 1.8 h; Ratio EC50 [15]: 38; Ratio EC50 [16]: 33; activity at 20 µM [17]: 94%; clearance [18]: 14.3 mL/min/kg; remaining at 0.5 h [19]: 96%; activity at 20 µM [20]: 58%; remaining at 0.5 h [21]: 101%; Activity [11]: 415 mg/dL; activity at 20 µM [22]: > 99%; Activity [12]: 118%; solubility kinetic [23]: 21.8 µM (≈ 9.7 µg/mL) |
| O=C(O)c1cccc(OCCC2CCN(c3nc4ccc(Cl)cc4s3)CC2)c1 | 7.5 | 1.4 | – | – | – | – | – |
